Assay results from ChEMBL document CHEMBL1154173, “L-proline-catalysed facile green protocol for the synthesis and antimycobacterial evaluation of [1,4]-thiazines” (2009).
≈ marks a conversion by molar mass, not a printed value.

What was measured:
[1] = tested on: Mycolicibacterium smegmatis; test: Antimycobacterial activity against […] Mycobacterium smegmatis MC2 by agar dilution method; type: functional
[2] = tested on: Mycobacterium tuberculosis; test: Antimycobacterial activity against Mycobacterium tuberculosis H37Rv by agar dilution method; type: functional

Compound	MIC [1] [µM]	MIC [2] [µM]
CCOC(=O)C1C(c2ccccc2Br)N(C)C(c2ccccc2Br)C(C(=O)c2ccc(Cl)cc2)S1(=O)=O (racemic)	18.7 (≈ 12.5 µg/mL)	9.33 (≈ 6.25 µg/mL)
CCOC(=O)C1C(c2ccco2)N(C)C(c2ccco2)C(C(=O)c2ccc(Cl)cc2)S1(=O)=O (racemic)	50.8 (≈ 25 µg/mL)	6.36 (≈ 3.13 µg/mL)
CCOC(=O)C1C(c2ccco2)NC(c2ccco2)C(C(=O)c2ccc(Cl)cc2)S1(=O)=O (racemic)	–	6.55 (≈ 3.13 µg/mL)
CCOC(=O)C1C(c2cccc3ccccc23)NC(c2cccc3ccccc23)C(C(=O)c2ccc(Cl)cc2)S1(=O)=O (racemic)	20.9 (≈ 12.5 µg/mL)	10.4 (≈ 6.25 µg/mL)
CCOC(=O)C1C(c2ccc(Cl)cc2)N(Cc2ccccc2)C(c2ccc(Cl)cc2)C(C(=O)c2ccc(Cl)cc2)S1(=O)=O (racemic)	38 (≈ 25 µg/mL)	9.51 (≈ 6.25 µg/mL)
CCOC(=O)C1C(c2cccc([N+](=O)[O-])c2)N(C)C(c2cccc([N+](=O)[O-])c2)C(C(=O)c2ccc(Cl)cc2)S1(=O)=O (racemic)	41.5 (≈ 25 µg/mL)	20.8 (≈ 12.5 µg/mL)
CCOC(=O)C1C(c2ccccc2)N(Cc2ccccc2)C(c2ccccc2)C(C(=O)c2ccc(Cl)cc2)S1(=O)=O (racemic)	42.5 (≈ 25 µg/mL)	42.5 (≈ 25 µg/mL)
CCOC(=O)C1C(c2cccc(F)c2)N(Cc2ccccc2)C(c2cccc(F)c2)C(C(=O)c2ccc(Cl)cc2)S1(=O)=O (racemic)	40.1 (≈ 25 µg/mL)	10 (≈ 6.25 µg/mL)
CCOC(=O)C1C(c2ccc(Cl)cc2)N(C)C(c2ccc(Cl)cc2)C(C(=O)c2ccc(Cl)cc2)S1(=O)=O (racemic)	43 (≈ 25 µg/mL)	5.39 (≈ 3.13 µg/mL)
CCOC(=O)C1C(c2ccccc2[N+](=O)[O-])NC(c2ccccc2[N+](=O)[O-])C(C(=O)c2ccc(Cl)cc2)S1(=O)=O (racemic)	–	3.03 (≈ 1.78 µg/mL)
CCOC(=O)C1C(c2ccc(C)cc2)NC(c2ccc(C)cc2)C(C(=O)c2ccc(Cl)cc2)S1(=O)=O (racemic)	2.97 (≈ 1.56 µg/mL)	1.48 (≈ 0.779 µg/mL)
CCOC(=O)C1C(c2ccccc2OC)NC(c2ccccc2OC)C(C(=O)c2ccc(Cl)cc2)S1(=O)=O (racemic)	11.2 (≈ 6.25 µg/mL)	5.61 (≈ 3.13 µg/mL)
CCOC(=O)C1C(c2ccc(Cl)cc2Cl)NC(c2ccc(Cl)cc2Cl)C(C(=O)c2ccc(Cl)cc2)S1(=O)=O (racemic)	–	1.23 (≈ 0.782 µg/mL)
CCOC(=O)C1C(c2ccc(OC)cc2)NC(c2ccc(OC)cc2)C(C(=O)c2ccc(Cl)cc2)S1(=O)=O (racemic)	1.4 (≈ 0.781 µg/mL)	0.72 (≈ 0.402 µg/mL)
CCOC(=O)C1C(c2ccccc2)N(C)C(c2ccccc2)C(C(=O)c2ccc(Cl)cc2)S1(=O)=O (racemic)	48.8 (≈ 25 µg/mL)	24.4 (≈ 12.5 µg/mL)
CCOC(=O)C1C(c2ccc(Cl)cc2)NC(c2ccc(Cl)cc2)C(C(=O)c2ccc(Cl)cc2)S1(=O)=O (racemic)	11 (≈ 6.25 µg/mL)	2.75 (≈ 1.56 µg/mL)

Compound	MIC [1] [µM]	MIC [2] [µM]
CCOC(=O)C1C(c2ccccc2)NC(c2ccccc2)C(C(=O)c2ccc(Cl)cc2)S1(=O)=O (racemic)	50.2 (≈ 25 µg/mL)	12.6 (≈ 6.25 µg/mL)
CCOC(=O)C1C(c2ccc(N(C)C)cc2)NC(c2ccc(N(C)C)cc2)C(C(=O)c2ccc(Cl)cc2)S1(=O)=O (racemic)	–	10.7 (≈ 6.25 µg/mL)
CCOC(=O)C1C(c2ccccc2C)N(C)C(c2ccccc2C)C(C(=O)c2ccc(Cl)cc2)S1(=O)=O (racemic)	23.1 (≈ 12.5 µg/mL)	11.6 (≈ 6.25 µg/mL)
CCOC(=O)C1C(c2ccc(C)cc2)N(C)C(c2ccc(C)cc2)C(C(=O)c2ccc(Cl)cc2)S1(=O)=O (racemic)	–	5.8 (≈ 3.13 µg/mL)
CCOC(=O)C1C(c2cccc([N+](=O)[O-])c2)NC(c2cccc([N+](=O)[O-])c2)C(C(=O)c2ccc(Cl)cc2)S1(=O)=O (racemic)	10.6 (≈ 6.25 µg/mL)	5.32 (≈ 3.13 µg/mL)
CCOC(=O)C1C(c2cccc(F)c2)NC(c2cccc(F)c2)C(C(=O)c2ccc(Cl)cc2)S1(=O)=O (racemic)	–	5.86 (≈ 3.13 µg/mL)
CCOC(=O)C1C(c2cccs2)NC(c2cccs2)C(C(=O)c2ccc(Cl)cc2)S1(=O)=O (racemic)	12.2 (≈ 6.25 µg/mL)	12.2 (≈ 6.25 µg/mL)
CCOC(=O)C1C(c2ccc([N+](=O)[O-])cc2)NC(c2ccc([N+](=O)[O-])cc2)C(C(=O)c2ccc(Cl)cc2)S1(=O)=O (racemic)	10.6 (≈ 6.25 µg/mL)	0.68 (≈ 0.4 µg/mL)
CCOC(=O)C1C(c2ccc(C)cc2)N(Cc2ccccc2)C(c2ccc(C)cc2)C(C(=O)c2ccc(Cl)cc2)S1(=O)=O (racemic)	40.6 (≈ 25 µg/mL)	20.3 (≈ 12.5 µg/mL)
CCOC(=O)C1C(c2ccc(OC)cc2)N(Cc2ccccc2)C(c2ccc(OC)cc2)C(C(=O)c2ccc(Cl)cc2)S1(=O)=O (racemic)	–	9.64 (≈ 6.25 µg/mL)
CCOC(=O)C1C(c2ccc(F)cc2)N(Cc2ccccc2)C(c2ccc(F)cc2)C(C(=O)c2ccc(Cl)cc2)S1(=O)=O (racemic)	40.1 (≈ 25 µg/mL)	5.02 (≈ 3.13 µg/mL)
CC[C@@H](CO)NCCN[C@@H](CC)CO [ETHAMBUTOL]	–	7.64 (≈ 1.56 µg/mL)
NNC(=O)c1ccncc1 [ISONIAZID]	45.6 (≈ 6.25 µg/mL)	0.36 (≈ 0.0494 µg/mL)
NC(=O)c1cnccn1 [PYRAZINAMIDE]	–	50.8 (≈ 6.25 µg/mL)
CO[C@H]1/C=C/O[C@@]2(C)Oc3c(C)c(O)c4c(O)c(c(/C=N/N5CCN(C)CC5)c(O)c4c3C2=O)NC(=O)/C(C)=C\C=C\[C@H](C)[C@H](O)[C@@H](C)[C@@H](O)[C@@H](C)[C@H](OC(C)=O)[C@@H]1C [RIFAMPIN]	–	0.12 (≈ 0.0988 µg/mL)
